Results as given in patent publication US5277897A, “In vivo enhancement of cellular accumulation of lipophilic cationic organometallic compounds by reduction of intramembrane potential” (Brigham and Women's Hospital, priority 1992, dated 1994).
pEC50: −log10 of the molar value.

How the values were obtained:
[1] = system: cultured chick heart cells; assay: Effect of 8-anilino-1-naphthalene sulfonic acid on net uptake of Tc-MIBI in cultured chick heart cells (FIG. 9); assay type: cell-based; details: Gallus gallus, 0.5 h; 8-ANS 10^-4 M, within 30 minutes; read-out: net uptake of Tc-MIBI enhanced over the control
Procedure: FIG. 9. Effect of 8-anilino-1-naphthalene sulfonic acid on net uptake of Tc-M1B1 in cultured chick heart cells. Preparations were incubated for the times indicated in Tc-MIBI loading buffer in the absence (.quadrature.) and presence of 8-ANS ( , 10^-7 M; , 10^-4 M). Each point represents the mean ±SEM of 3-4 determinations.
(§1) Monolayers of spontaneously contractile chick ventricular myocardial cells were obtained from disaggregated 10-day old chick embryo hearts by a slight modification of previously published methods (Horres, C. R., et al., In Pinson, A. (ed.), The Heart Cell in Culture, Boca Raton, CRC Press, pp. 77-108 (1987)). Hearts were trimmed of connective tissue and atria, finely minced and serially exposed to 0.024% (w/v) trypsin in Ca^2+ - and Mg^2+ - free Earle's salt solution for 7 minutes at 37° C. Gentle trituration and agitation on an orbital shaker bath aided disaggregation. Cells released from the first exposure were discarded and cells aspirated from the next four exposures were then added to an equal volume of trypsin deactivating solution consisting of ice-cold culture medium. Cells were centrifuged at 400 g for 10 minutes, resuspended and combined in culture medium, counted with a hemocytometer and diluted to yield a suspension of 5×10^5 cells/ml. […]

[2] = system: cultured chick heart cells; assay: Influence of TPB and CCCP on (membrane potential-independent) accumulation of Tc-MIBI (FIG. 4); assay type: cell-based; details: TPB; CCCP
Procedure: FIG. 4. […] Preparations were incubated for the times indicated in 5.4 mM Ko control loading buffer containing tracer Tc-MIBI and TPB together (Δ) or in loading buffer containing Tc-MIBI alone (.quadrature.). For the latter incubation, TPB was added to the loading buffer at the arrow and cell content of Tc-MIBI subsequently determined (o). Under each condition, CCCP was added to the loading buffers as indicated by the arrows and cell content of Tc-MIBI determined ( , , ·). Each point is the mean ±SEM of 3 determinations.
Monolayers of spontaneously contractile chick ventricular myocardial cells were obtained from disaggregated 10-day old chick embryo hearts by a slight modification of previously published methods (Horres, C. R., et al., In Pinson, A. (ed.), The Heart Cell in Culture, Boca Raton, CRC Press, pp. 77-108 (1987)). Hearts were trimmed of connective tissue and atria, finely minced and serially exposed to 0.024% (w/v) trypsin in Ca^2+ - and Mg^2+ - free Earle's salt solution for 7 minutes at 37° C. Gentle trituration and agitation on an orbital shaker bath aided disaggregation. Cells released from the first exposure were discarded and cells aspirated from the next four exposures were then added to an equal volume of trypsin deactivating solution consisting of ice-cold culture medium. Cells were centrifuged at 400 g for 10 minutes, resuspended and combined in culture medium, counted with a hemocytometer and diluted to yield a suspension of 5×10^5 cells/ml. 12 ml of suspension were incubated in 100 mm plastic culture dishes containing 7 coverslips (25 mm diameter) placed on the bottom of each dish to serve as substrate for cell growth. Cells were maintained in a humidified atmosphere of 5% CO2 /95% air for 3-4 days yielding a confluent layer of spontaneously contractile myocytes on each coverslip.
Radioactive uptake methods have been described in detail (Piwnica-Worms, D., et al, Circ. (in press). Briefly, coverslips with confluent cells were removed from culture media and pre-equilibrated for 40-60 seconds in MEBSS buffer. Uptake and retention experiments were initiated by immersion of coverslips in 60 mm glass Pyrex dishes containing loading solution consisting of buffer with 0.1-0.6 nM [^99m Tc-MIBI] (0.01-0.4 Ci/nmole; 25-100 uCi/ml). Preparations were removed at various times and rinsed three times in 25 ml volumes of ice-cold (2° C.) isotope-free buffer for 8 seconds each to clear extracellular spaces. Preparations and aliquots of the loading buffer and stock solutions were counted in a well-type sodium iodide gamma counter after which cell protein on each coverslip was extracted in 1% sodium dodecylsulfate with 10 mM sodium borate and assayed by the method of Lowry (Lowry, O. H., et al., J. Biol. Chem. 193:265-275 (1951)). Tc-MIBI binding to glass coverslips without cells was used as an estimate of non-specific adhesion to the substrate ([…] obtained with cellular preparations); this value was subtracted from total uptake determinations to derive the cell-associated counts. Use of generator equilibrium equations (Lamson, M. L., et al., i J. Nucl. Med. 16:639-641 (1975)) allowed calculation of absolute moles of Tc-MIBI in solutions and preparations. Results were therefore expressed as fmol cellular Tc-MIBI/mg protein per nM extracellular Tc-MIBI concentration. […]

[3] = Effect of tetraphenylborate on the biodistribution of Tc-MIBI in rats (Table 2); assay type: in vivo; details: TPB vs no TPB
Procedure: The results are expressed as percent injected dose per gram of tissue. […] For this series of experiments, 50 microliters of dimethylsulfoxide lacking or containing 7.2 mM TPB were injected directly into the jugular vein of anesthetized rats immediately prior to the injection of Tc-MIBI (150 microliters; 100 microCuries per 200 microliters).
After 15 minutes, the animal was sacrificed by thoracotomy, organs extracted and placed in test tubes and counted for radioactivity in a standard well-type gamma counter. Tissue wet weights were obtained by subtracting fare weights from total weight of test tubes plus tissue.
Results are expressed as mean ±SEM of three determinations each.

[4] = system: cultured chick heart cells; assay: Effect of TPB on net accumulation of Tc-MIBI in cultured chick heart cells (FIG. 1); assay type: cell-based; details: TPB 10^-5 M; P <0.001
Procedure: FIG. 1. Effect of TPB on net accumulation of Tc-MIBI in cultured chick heart cells. Preparations were incubated for the times indicated in Modified Earle's Basic Salt Solution (MEBSS) control buffer containing tracer Tc-MIBI alone (.quadrature.) and with various concentrations of tetraphenylborate: ( ) 10^-9 M; ( ) 5×10^-7 M; (·) 10^-5 M. Results are expressed as fmol cellular Tc-MIBI/mg protein per nM extracellular Tc MIBI. Each point represents the mean ±SEM of 3 determinations.
Control buffer was a modified Earle's balanced salt solution (MEBSS) with the following composition (mN) Na^30, 145; K^+, 5.4; Ca^2, 1.2; Mg^2+, 0.8; Cl, 152; H2 PO4, 0.8; SO4^2-, 0.8; dextrose, 5.6; HEPES, 4.0; and bovine calf serum, 1% (v/v); pH 78.4±0.05; 37° C. […]
Monolayers of spontaneously contractile chick ventricular myocardial cells were obtained from disaggregated 10-day old chick embryo hearts by a slight modification of previously published methods (Horres, C. R., et al., In Pinson, A. (ed.), The Heart Cell in Culture, Boca Raton, CRC Press, pp. 77-108 (1987)). […] Cells were centrifuged at 400 g for 10 minutes, resuspended and combined in culture medium, counted with a hemocytometer and diluted to yield a suspension of 5×10^5 cells/ml. […]

[5] = system: cultured chick heart cells; assay: Concentration-effect curve for TPB enhancement of 2-minute uptake of Tc-MIBI (FIG. 2); assay type: cell-based
Procedure: FIG. 2. Concentration-effect curve for TPB enhancement of 2-minute uptake of Tc-MIBI. Preparations were pre-incubated for 1 minute in control MEBSS buffer containing TPB at the indicated concentrations prior to determination of tracer Tc-MIBI uptake in the continued presence of TPB. Each point represents the mean ±SEM of 3 determinations.
as §1

[6] = system: cultured heart cells; assay: TPB toxicity at high concentration in cultured heart cells; assay type: cell-based, chick; details: TPB 10^-4 M
[7] = system: perfused rabbit heart; details: ouabain 1.5×10^-6 M; cited from earlier work

O=S(=O)(O)c1cccc2cccc(Nc3ccccc3)c12 [8-anilino-1-naphthalene sulfonic acid]
activation at 100 µM [1]: 25%

c1ccc([B-](c2ccccc2)(c2ccccc2)c2ccccc2)cc1 [TPB, tetraphenylborate]
residual CCCP-insensitive Tc-MIBI content, of the TPB-enhanced Tc-MIBI content [2]: 13% | Tc-MIBI accumulation in liver, kidney, lung and blood [3]: significant increase in Tc-MIBI accumulation within the tissues | increase in tissue retention of Tc-MIBI, all tissues [3]: 50% | peak accumulation of Tc-MIBI, greater than control [4]: 4 fold | myocellular uptake of Tc-MIBI increased in a concentration-dependent manner up to [5]: up to 3×10^-5 M | pEC50 ([5]; Gallus gallus, 1 minute pre-incubation with TPB, read-out: half-maximal concentration for TPB enhancement of myocellular uptake of Tc-MIBI): 5.52 | enhancement of Tc-MIBI accumulation / cellular toxicity [6]: relatively less enhancement of Tc-MIBI accumulation compared to moderate TPB concentrations suggesting cellular toxicity

CC1OC(OC2CC(O)C3(CO)C4C(O)CC5(C)C(C6=CC(=O)OC6)CCC5(O)C4CCC3(O)C2)C(O)C(O)C1O (stereo not drawn) [oaubain]
net tissue extraction of Tc-MIBI [7]: alter net tissue extraction of Tc-MIBI
